Experimental data from US4363807A, “Cepham compounds” (Fujisawa Pharmaceutical Company, Limited, priority 1978, dated 1982).
Converted amounts (≈) assume the structure as drawn.

Legend:
[1] = tested on: Proteus mirabilis 18; experiment: In vitro antibacterial activity, two-fold agar-plate dilution method (MIC), Proteus mirabilis 18; format: cell-based; details: heart infusion agar, 37° C., 20 hours, read-out: MIC (minimal inhibitory concentration)
Procedure: (§1) 1. In vitro antibacterial activity: (1) Test method: In vitro antibacterial activity was determined by the two-fold agar-plate dilution method as described below. One loopful of an overnight culture of each test strain in Trypticase soy broth was streaked on heart infusion agar (HI-agar) containing graded concentration of the test compound and incubated at 37° C. for 20 hours. The minimal inhibitory concentration (MIC) was expressed in μg/ml.

[2] = tested on: Klebsiella pneumoniae 20; experiment: In vitro antibacterial activity, two-fold agar-plate dilution method (MIC), Klebsiella pneumoniae 20; format: cell-based; details: heart infusion agar, 37° C., 20 hours, read-out: MIC (minimal inhibitory concentration)
Procedure: as §1

`CO/N=C(\C(=O)NC1C(=O)N2C(C(=O)O)C(=COC(C)=O)CSC12)c1csc(N)n1` (stereo not drawn) [Test compound, 7-[2-(2-Aminothiazol-4-yl)-2-methoxyiminoacetamido]-3-acetoxymethylenecepham-4-carboxylic acid (syn isomer)] was tested, and the MIC [1] was 6.25 µg/mL (≈ 13.7 µM) and the MIC [2] was 6.25 µg/mL (≈ 13.7 µM).
